From article PMC5437670 (Journal of the American Chemical Society, 2017)

How the values were obtained:
[1] = biological target: T1, Thermotoga maritima TmGH1 β-glucosidase (Thermotoga maritima, UniProt Q08638); assay: Kinetic studies of reversible inhibition of TmGH1; assay type: biochemical; details: for inhibition of TmGH1 (in words): p-nitrophenyl β-D-glucopyranoside, Lineweaver–Burk method
T1 sequence (Q08638 1-446): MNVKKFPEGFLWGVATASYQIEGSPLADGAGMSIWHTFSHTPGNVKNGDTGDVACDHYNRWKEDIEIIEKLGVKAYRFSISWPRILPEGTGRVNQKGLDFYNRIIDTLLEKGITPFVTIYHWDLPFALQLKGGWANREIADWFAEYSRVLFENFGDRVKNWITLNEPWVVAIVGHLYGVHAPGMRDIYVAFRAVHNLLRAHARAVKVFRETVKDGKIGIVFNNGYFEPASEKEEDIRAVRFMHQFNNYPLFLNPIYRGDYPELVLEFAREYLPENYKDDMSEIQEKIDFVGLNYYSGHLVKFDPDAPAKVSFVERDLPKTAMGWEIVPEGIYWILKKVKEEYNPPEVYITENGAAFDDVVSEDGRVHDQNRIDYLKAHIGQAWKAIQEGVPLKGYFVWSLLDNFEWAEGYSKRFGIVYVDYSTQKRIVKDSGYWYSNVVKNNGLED

[2] = biological target: recombinant human GAA (Myozyme), lysosomal α-glucosidase (Homo sapiens, UniProt P10253); assay: Enzyme activity assay, apparent IC50 on GAA; assay type: biochemical

SMILES | inhibition of TmGH1 (in words) [1] | Ki [1] | IC50 [2] | inhibition of GAA (in words) ([2]; final concentrations up to 150 μM)
OC[C@@H]1[C@@H](O)[C@H](O)[C@@H](O)CN1CCCCCOCC12CC3CC(CC(C3)C1)C2 [AMP-DNM (MZ-21), reference compound] | low micromolar |  |  | 
CCOC(=O)[C@@H]1[C@H]2[C@H](O)[C@@H](O)[C@H](O)[C@@H](CO)[C@@H]12 [Compound 3] | micromolar inhibition | 22.3 µM | > 150 µM | 
[N-]=[N+]=NCCCCNC(=O)[C@@H]1[C@H]2[C@H](O)[C@@H](O)[C@H](O)[C@@H](CO)[C@@H]12 [Compound 5] |  | 0.0082 µM | > 150 µM | No apparent inhibition
OC[C@H]1NC[C@H](O)[C@@H](O)[C@@H]1O [DNJ, deoxynojirimycin, reference compound] | low micromolar | 2.5 µM |  | 
